Tested on: M. furfur CBS 7982
Assay: Fractional Inhibitor Concentration (FIC): antimicrobial plus 409 nm light on M. furfur growth
Assay type: cell-based, Malassezia furfur
Conditions: for growth, OD 600 nm: 16 h growth
Experimental: Fractional Inhibitor Concentration (FIC) is a conventional methodology for evaluating the interaction of two antimicrobial chemicals. […] In an embodiment of the present invention, FIC is used to determine combinatorial effects of one chemical and exposure to light on Malassezia growth and/or viability in an in vitro system.
• 1. M. furfur CBS 7982 cells are exposed to a varying concentrations of an antimicrobial active (e.g. ZPT, Piroctone Olamine) for a specified amount of time (e.g. 2 min to 3 hours). • 2. After exposure, the antimicrobial is washed away by centrifugation of the cells and a series of washes • 3. Cells are then exposed to light at a wavelength of 409 nm for varying lengths of time • 4. Cells are then allowed to grow up overnight (e.g. 17 h) to determine the impact of the treatment on viability and growth of the organism by measuring OD600 II. Data Analysis: • 1. Inhibition of growth is determined to be where the OD value obtained is <=50% of the untreated control • 2. The lowest concentration value of the antimicrobial agent which inhibits growth is determined • 3. Likewise, the shortest light exposure time is determined that gives growth inhibition • 4. Finally, the combination of the lowest concentration of the antimicrobial and the shortest light exposure time that provides growth inhibition is determined • 5. The FIC value is determined using the calculation below:
[formula] • 6. The combinatorial effect of the antimicrobial and light is classified according to the chart below: […]
M. furfur is incubated for one hour with varying concentrations of Piroctone Olamine. Cell pellets are collected by centrifugation so that most of the anti-fungal material has been removed. The cell pellet is suspended in PBS and 500 uL samples are distributed to four 12 well plates and treated with light (409 nm) for 1, 10 or 60 minutes or stored in the dark. Samples are then diluted into mDixon, and incubated for 16 h with subsequent growth measured by OD 600 nm.
M. furfur is incubated for one hour with varying concentrations of Hinokitiol. Cell pellets are collected by centrifugation so that most of the anti-fungal material has been removed. The cell pellet is suspended in PBS and 500 uL samples are distributed to four 12 well plates and treated with light (409 nm) for 1, 10 or 60 minutes or stored in the dark. Samples are then diluted into mDixon, and incubated for 27 h with subsequent growth measured by OD 600 nm. […]

## [O-]n1ccccc1=S.[O-]n1ccccc1=S.[Zn+2] [ZPT, zinc salt of 1-hydroxy-2-pyridinethione]
409 nm light, with the lowest inhibiting concentration
  shortest light exposure time when applied in combination to give growth inhibition: 2 min
ZPT 1.25 ppm 3 h, 409 nm light 0 min
  growth, OD 600 nm: 7.76
ZPT 1.25 ppm 3 h, 409 nm light 2 min
  growth, OD 600 nm: 7.24
ZPT 1.25 ppm 3 h, 409 nm light 10 min
  growth, OD 600 nm: 6.24
ZPT 1.25 ppm 3 h, 409 nm light 60 min
  growth, OD 600 nm: 1.96
ZPT 2.5 ppm 3 h, 409 nm light 0 min
  growth, OD 600 nm: 7.12
ZPT 2.5 ppm 3 h, 409 nm light 2 min
  growth, OD 600 nm: 3.35
ZPT 2.5 ppm 3 h, 409 nm light 10 min
  growth, OD 600 nm: 0.31
ZPT 2.5 ppm 3 h, 409 nm light 60 min
  growth, OD 600 nm: 0.03
ZPT 5 ppm 3 h, 409 nm light 0 min
  growth, OD 600 nm: 6.21
ZPT 5 ppm 3 h, 409 nm light 2 min
  growth, OD 600 nm: 5.30
ZPT 5 ppm 3 h, 409 nm light 10 min
  growth, OD 600 nm: 3.72
ZPT 5 ppm 3 h, 409 nm light 60 min
  growth, OD 600 nm: 0.87
ZPT 10 ppm 3 h, 409 nm light 0 min
  growth, OD 600 nm: 4.85
ZPT 10 ppm 3 h, 409 nm light 2 min
  growth, OD 600 nm: 4.91
ZPT 10 ppm 3 h, 409 nm light 10 min
  growth, OD 600 nm: 4.06
ZPT 10 ppm 3 h, 409 nm light 60 min
  growth, OD 600 nm: 0.83
ZPT 20 ppm 3 h, 409 nm light 0 min
  growth, OD 600 nm: 0.51
ZPT 20 ppm 3 h, 409 nm light 2 min
  growth, OD 600 nm: 0.58
ZPT 20 ppm 3 h, 409 nm light 10 min
  growth, OD 600 nm: 0.64
ZPT 20 ppm 3 h, 409 nm light 60 min
  growth, OD 600 nm: 0.37
Antimicrobial alone, no light, inhibition = OD <=50% of untreated control
  lowest concentration to give growth inhibition: 10 ppm
Antimicrobial plus 409 nm light
  FIC value: 0.28
Antimicrobial plus 409 nm light, classified by FIC value
  Combinatorial Effect: synergistic
With 409 nm light, inhibition = OD <=50% of untreated control
  lowest concentration when applied in combination with light to give growth inhibition: 2.5 ppm

— patent US11771765B2, “Light augmented treatment method” (The Procter & Gamble Company, priority 2019, dated 2023)
